Reference: patent US20250360111A1, “COMPOSITIONS OF AGPAT4 INHIBITORS AND METHODS OF USING THEREOF TO TREAT CANCER” (The University of Hong Kong, priority 2024, published 2025)

How the values were obtained:
[1] = target: T1, acyltransferase activity of AGPAT4 (Homo sapiens, UniProt Q9NRZ5); experiment: LPA to PA conversion assay; assay type: biochemical
T1 construct: The open reading frame (ORF) encoding the mRNA of AGPAT4 was cloned into the pDONR-221 donor vector; expressed in transfected cells; host or cells: Huh7 (lentiviral pEZ-Lv199-AGPAT4); also sorafenib-resistant HepG2 (endogenous AGPAT4)
T1 sequence (Q9NRZ5 1-378): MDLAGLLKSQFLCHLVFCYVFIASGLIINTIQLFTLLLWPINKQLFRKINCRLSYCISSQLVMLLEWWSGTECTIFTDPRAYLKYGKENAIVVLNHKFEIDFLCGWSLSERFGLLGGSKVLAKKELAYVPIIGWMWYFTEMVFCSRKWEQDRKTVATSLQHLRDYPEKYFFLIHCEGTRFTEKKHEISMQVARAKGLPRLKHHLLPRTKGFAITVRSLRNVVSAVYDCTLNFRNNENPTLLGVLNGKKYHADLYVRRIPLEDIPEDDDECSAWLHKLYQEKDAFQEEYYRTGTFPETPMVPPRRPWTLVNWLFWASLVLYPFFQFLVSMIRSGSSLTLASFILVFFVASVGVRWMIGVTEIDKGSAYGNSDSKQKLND
Experimental: Enzyme activity was measured by quantifying the conversion of [3H]-LPA to [3H]-PA following the protocol outlined in a previous study (43). Briefly, the enzymatic reaction was prepared by combining 10 μmol/L 18:1 Lyso PA (Avanti Polar Lipids), 50 μmol/L oleoyl CoA (Sigma-Aldrich), 1 μL 1-oleoyl-[oleoyl-9,10^−3H]-LPA (specific activity 30-60 Ci/mmol; PerkinElmer), and 1 mg/mL fatty acid-free BSA in 200 μL 100 mM Tris-HCl buffer at pH 7.4. The reaction was initiated by adding 30 μg of total protein (cell lysate) and incubating the mixture at 37° C. for 10 min. To stop the reaction, 0.5 mL of 1-butanol containing 1 M HCl was added to extract phospholipids to stop the reaction. The butanol extract was then dried under vacuum, and the LPA and PA were separated using a solvent system consisting of chloroform, methanol, acetic acid, and water (25:10:3:1). Radioactive spots were identified by comparing their migration with unlabelled LPA and PA standards and visualized using iodine vapours. The spots corresponding to [3H]-LPA and [3H]-PA were scraped and their radioactivity was measured using a Tri-Carb Liquid Scintillation Counter 4810 (PerkinElmer Life Sciences).

[2] = test system: AGPAT LPAAT family members (AGPAT1, 2, 3, 4 and 5); experiment: Isoform specificity: streptavidin pulldown and immunoblotting of CL26-alkyne-bound proteins; assay type: cell-based, human; details: Huh7 cells, DTB-PEG-azide, streptavidin pulldown
Experimental: An in-gel fluorescence assay was performed to investigate the protein targets of CL26. Huh7 cells overexpressing AGPAT4 or cysteine mutants were pre-treated with CL26 at the indicated concentrations for 2 h, followed by CL26-alkyne (1 μM) treatment for another 2 h. Cells were harvested in RIPA buffer supplemented with protease and phosphatase inhibitors (Thermo Fisher Scientific #A32961). The proteins were precipitated by incubation with 6× volume of pre-chilled acetone at −20° C. overnight. Proteins were pelleted by centrifugation at 5000 g for 10 min and resuspended in PBS. The protein content was measured using the BCA assay and normalized to 2 mg/mL. Cell lysates (50 μL) were labelled with azide-fluor 545 by click reaction (final reaction mixture: azide-fluor 545 (25 μM), copper(II) sulfate (1 mM), TBTA (100 μM), and freshly prepared TCEP (1 mM)) at room temperature with constant agitation. After incubation for 1 h, the reaction was quenched with the sampling buffer and boiled at 90° C. for 5 min. Samples were subjected to SDS-PAGE, in-gel fluorescence was captured using ChemiDoc MP (Bio-Rad), and Coomassie Blue staining was performed. Similarly, immunoblotting was used to investigate the protein targets of CL26. […] The samples were subjected to SDS-PAG E and imaged for fluorescence signals before western blot analysis. […]

[3] = test system: sorafenib-sensitive and sorafenib-resistant HepG2 cells; experiment: XTT assay, viability assay and excess over bliss synergy analysis; assay type: cell-based, human; details: CL26 combined with sorafenib, 48 h
Experimental: (§1) Cells (1×10^3 cells/well) were seeded in 96-well plates and cultured in complete medium for 24 h. Subsequently, sorafenib and/or CL26 was added to the culture and incubated for 48 h. The XTT tetrazolium reagent (Gold Biotechnology) and phenazine methosulfate (Thermo Fisher Scientific) were premixed and added to each well. The absorbance at 450 nm was measured using a Victor 3 microplate reader (PerkinElimer). Drug interactions were evaluated using the bliss independence model. According to this model, the expected growth inhibition (Eexp) resulting from the combination of drugs A and B was calculated using the following equation: Eexp=Ea+Eb−Ea×Eb, with Ea representing the growth inhibition caused by drug A alone and Eb representing the growth inhibition caused by drug B alone. To assess drug interactions, the difference between the observed growth inhibition (Eobs) and expected growth inhibition (Eexp) was calculated.
(§2) 1×10^4 cells were seeded in a 6-well plate and cultured in complete medium for 24 h. Subsequently, sorafenib and/or CL26 was added to the culture and incubated for 48 h. Dead cells were carefully washed with PBS, and the remaining viable cells were fixed using 4% paraformaldehyde (Sigma-Aldrich) and visualized by staining with 2% crystal violet (Sigma-Aldrich).

[4] = test system: MHCC97L and MHCC97H vs. Huh7 and LO2 cells; experiment: as above; assay type: cell-based, human; details: CL26 combined with sorafenib, 48 h
Experimental: as §1, §2

O=C(CCl)NCc1ccc(-c2nc3ccccc3s2)o1 [CL26, N-[[5-(2-benzothiazolyl)-2-furanyl]methyl]-2-chloroacetamide] was tested, and the “inhibition of acyltransferase activity (LPA to PA conversion)” value ([1]; Huh7 cells overexpressing AGPAT4 and sorafenib-resistant HepG2 cells) was “inhibition of acyltransferase activity of AGPAT4 in vitro was verified”, the “inhibition of acyltransferase activity (PA conversion assay) in tumors” value ([1]; sorafenib-resistant HCC PDX model #2) was “inhibitory effect of CL26 on acyltransferase activity in sorafenib-resistant PDX was confirmed” and the “specificity for AGPAT4 over other AGPAT LPAAT family members” value [2] was “only targets AGPAT4 and no other related AGPAT isoforms”. The “synergistic effect with sorafenib” value [3] was “exclusively observed in sorafenib-resistant HepG2 cells” and the “synergistic effect with sorafenib (excess over bliss scores)” value [4] was “synergistic effect was observed solely in cells with high AGPAT4-expressing MHCC97L and MHCC97H cells”.
